Measured values as given in ChEMBL document CHEMBL1201862, “PubChem BioAssay data set” (2004).
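Cultured in 96-well plates, cells were exposed to test compound for 48 hours across five concentrations. Abbreviation: GI50, concentration required for 50% inhibition of growth.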 Calls of active or inactive are those of the source. No stated cut-off is given here; in the data, active = GI50 up to about 1.1 µM and inactive = higher.

Legend:
Assay in all cases: DTP human tumour cell line panel, 48 h
[1] = tested on: A498
[2] = tested on: A549
[3] = tested on: BT-549
[4] = tested on: CAKI-1
[5] = tested on: EKVX
[6] = tested on: HOP-92
[7] = tested on: M14
[8] = tested on: MDA-MB-231
[9] = tested on: MDA-MB-435
[10] = tested on: MOLT-4
[11] = tested on: NCI-H226
[12] = tested on: SF-295
[13] = tested on: SK-MEL-5
[14] = tested on: SR
[15] = tested on: TK-10
[16] = tested on: U-251
[17] = tested on: UACC-257
[18] = tested on: UACC-62
[19] = tested on: HL-60

SMILES | GI50 [1] | GI50 [2] | GI50 [3] | GI50 [4] | GI50 [5] | GI50 [6] | GI50 [7] | GI50 [8] | GI50 [9] | GI50 [10] | GI50 [11] | GI50 [12] | GI50 [13] | GI50 [14] | GI50 [15] | GI50 [16] | GI50 [17] | GI50 [18] | GI50 [19]
Cn1c(=O)c2c(-c3ccccc3)onc2n(C)c1=O | 64.1 µM (inactive) | 21.3 µM (inactive) | 17.2 µM (inactive) | 42.1 µM (inactive) | 38.4 µM (inactive) | 42 µM (inactive) | 16.9 µM (inactive) | 49.9 µM (inactive) | 44.5 µM (inactive) | 26.8 µM (inactive) | > 100 µM (inactive) | 40.7 µM (inactive) | 30.7 µM (inactive) | 36.6 µM (inactive) | 14.4 µM (inactive) | 28.1 µM (inactive) | 31.3 µM (inactive) | 21.7 µM (inactive) | –
O=C1N[C@@H](c2c[nH]c3cc(Br)ccc23)C(=O)N[C@H]1c1c[nH]c2cc(Br)ccc12 | > 100 µM (inactive) | > 100 µM (inactive) | > 100 µM (inactive) | – | > 100 µM (inactive) | 40.6 µM (inactive) | > 100 µM (inactive) | 17.1 µM (inactive) | > 100 µM (inactive) | – | > 100 µM (inactive) | > 100 µM (inactive) | > 100 µM (inactive) | > 100 µM (inactive) | > 100 µM (inactive) | 25.8 µM (inactive) | > 100 µM (inactive) | > 100 µM (inactive) | > 100 µM (inactive)
COC(=O)[C@@H](NC(=O)c1ccc(CNC(=O)/C(C)=C/c2ccccc2)cc1)C(C)C | > 100 µM (inactive) | > 100 µM (inactive) | > 100 µM (inactive) | > 100 µM (inactive) | 35.4 µM (inactive) | > 100 µM (inactive) | 61.2 µM (inactive) | > 100 µM (inactive) | 70 µM (inactive) | 78.2 µM (inactive) | > 100 µM (inactive) | > 100 µM (inactive) | 68.4 µM (inactive) | > 100 µM (inactive) | > 100 µM (inactive) | > 100 µM (inactive) | 14.2 µM (inactive) | 70 µM (inactive) | –
CC(C)c1nc2c(Cl)c3ncccc3cc2[nH]c1=O | > 100 µM (inactive) | > 100 µM (inactive) | 54.5 µM (inactive) | 94.6 µM (inactive) | 9.71 µM (inactive) | > 100 µM (inactive) | > 100 µM (inactive) | 73.6 µM (inactive) | > 100 µM (inactive) | 29.6 µM (inactive) | 65.9 µM (inactive) | > 100 µM (inactive) | 73.6 µM (inactive) | > 100 µM (inactive) | – | 73.3 µM (inactive) | > 100 µM (inactive) | > 100 µM (inactive) | 50.4 µM (inactive)
CCc1cccc(C(C)C)c1NC(=O)C(=O)Nn1c(S)nc2ccccc2c1=O | > 100 µM (inactive) | > 100 µM (inactive) | > 100 µM (inactive) | > 100 µM (inactive) | 37.8 µM (inactive) | > 100 µM (inactive) | > 100 µM (inactive) | 76.2 µM (inactive) | > 100 µM (inactive) | > 100 µM (inactive) | > 100 µM (inactive) | > 100 µM (inactive) | > 100 µM (inactive) | 77.3 µM (inactive) | > 100 µM (inactive) | > 100 µM (inactive) | > 100 µM (inactive) | > 100 µM (inactive) | –
c1csc(-c2cc(-c3ccsc3)c(-c3cccs3)s2)c1 | > 100 µM (inactive) | 92.7 µM (inactive) | 46.2 µM (inactive) | > 100 µM (inactive) | 16 µM (inactive) | 32.2 µM (inactive) | 56.1 µM (inactive) | 29.8 µM (inactive) | 39.4 µM (inactive) | 30.1 µM (inactive) | > 100 µM (inactive) | > 100 µM (inactive) | 53.6 µM (inactive) | 36.9 µM (inactive) | > 100 µM (inactive) | 81.3 µM (inactive) | 56.2 µM (inactive) | 48.4 µM (inactive) | –
CCCCCCNC(=O)c1cc(CCc2cc(O)ccc2O)ccc1O | 4.24 µM (inactive) | 7.83 µM (inactive) | 1.94 µM (inactive) | 3.32 µM (inactive) | 5.75 µM (inactive) | 1.72 µM (inactive) | 6.05 µM (inactive) | 2.25 µM (inactive) | 3.61 µM (inactive) | 1.93 µM (inactive) | 4.23 µM (inactive) | 14.1 µM (inactive) | 4.62 µM (inactive) | 2.23 µM (inactive) | 2.96 µM (inactive) | 2.3 µM (inactive) | 2.2 µM (inactive) | – | 0.723 µM (active)
OCCN(/N=C\c1ccc2ccccc2c1)C1=NCCN1 | – | 59.2 µM (inactive) | 42.8 µM (inactive) | – | 40.5 µM (inactive) | 16 µM (inactive) | 18.6 µM (inactive) | 12.8 µM (inactive) | 16.9 µM (inactive) | 18.2 µM (inactive) | 12.9 µM (inactive) | 31 µM (inactive) | 18.3 µM (inactive) | 25.6 µM (inactive) | 37.7 µM (inactive) | 24.9 µM (inactive) | – | 21.3 µM (inactive) | 19 µM (inactive)
Cc1cc(NS(=O)(=O)c2ccc(NC(=O)c3ccc4nc5ccccc5c(Nc5ccc(S(=O)(=O)Nc6cc(C)on6)cc5)c4c3)cc2)no1 | – | > 50 µM (inactive) | > 50 µM (inactive) | > 50 µM (inactive) | > 50 µM (inactive) | > 50 µM (inactive) | > 50 µM (inactive) | > 50 µM (inactive) | > 50 µM (inactive) | > 50 µM (inactive) | > 50 µM (inactive) | > 50 µM (inactive) | > 50 µM (inactive) | > 50 µM (inactive) | > 50 µM (inactive) | > 50 µM (inactive) | > 50 µM (inactive) | > 50 µM (inactive) | > 50 µM (inactive)
C/C=C\C1OC1(C)c1cc(=O)c2c(C)cc3c(c2o1)C(=O)c1c(O)c(C2CC(C)(N(C)C)C(OC(C)=O)C(C)O2)cc(C2CC(N(C)C)C(O)C(C)O2)c1C3=O (configuration not stated) | 0.00875 µM (active) | < 0.00375 µM (active) | 0.00596 µM (active) | < 0.00375 µM (active) | 0.00836 µM (active) | 0.00593 µM (active) | < 0.00375 µM (active) | 0.0067 µM (active) | 0.00449 µM (active) | < 0.00375 µM (active) | 0.00461 µM (active) | < 0.00375 µM (active) | 0.00414 µM (active) | < 0.00375 µM (active) | 0.0113 µM (active) | < 0.00375 µM (active) | 0.00984 µM (active) | < 0.00375 µM (active) | –
O=C1CSC2(CC(/C=C/c3cccc(Br)c3)=NN2c2cccc(S(=O)(=O)O)c2)N1c1nc2ccccc2s1 (configuration not stated) | > 100 µM (inactive) | > 100 µM (inactive) | > 100 µM (inactive) | > 100 µM (inactive) | > 100 µM (inactive) | > 49.7 µM (inactive) | > 100 µM (inactive) | > 100 µM (inactive) | 62.4 µM (inactive) | > 100 µM (inactive) | > 100 µM (inactive) | > 100 µM (inactive) | > 100 µM (inactive) | 41.5 µM (inactive) | > 100 µM (inactive) | > 100 µM (inactive) | > 100 µM (inactive) | 80.2 µM (inactive) | –
Cc1csc(NC23CC4CC(CC(C4)C2)C3)[n+]1C(P(=O)([O-])O)P(=O)(O)O (configuration not stated) | > 100 µM (inactive) | > 100 µM (inactive) | > 100 µM (inactive) | > 100 µM (inactive) | > 100 µM (inactive) | > 100 µM (inactive) | > 100 µM (inactive) | > 100 µM (inactive) | > 100 µM (inactive) | > 100 µM (inactive) | > 100 µM (inactive) | > 100 µM (inactive) | > 100 µM (inactive) | > 100 µM (inactive) | > 100 µM (inactive) | > 100 µM (inactive) | > 100 µM (inactive) | > 100 µM (inactive) | –
O=C(NNC(=O)c1cc2ccccc2[nH]1)c1cc2ccccc2[nH]1 | > 100 µM (inactive) | > 100 µM (inactive) | > 100 µM (inactive) | > 100 µM (inactive) | > 100 µM (inactive) | – | > 100 µM (inactive) | > 100 µM (inactive) | > 100 µM (inactive) | > 100 µM (inactive) | > 100 µM (inactive) | > 100 µM (inactive) | > 100 µM (inactive) | 66.5 µM (inactive) | > 100 µM (inactive) | > 100 µM (inactive) | > 100 µM (inactive) | > 100 µM (inactive) | 95.7 µM (inactive)
CCOc1nc(-c2ccccc2)cc(-c2ccc(N3CCOCC3)cc2)c1C#N | > 100 µM (inactive) | > 100 µM (inactive) | > 100 µM (inactive) | > 100 µM (inactive) | > 100 µM (inactive) | > 100 µM (inactive) | > 100 µM (inactive) | > 100 µM (inactive) | > 100 µM (inactive) | > 100 µM (inactive) | > 100 µM (inactive) | 7.35 µM (inactive) | 42.5 µM (inactive) | > 100 µM (inactive) | > 100 µM (inactive) | > 100 µM (inactive) | 19.1 µM (inactive) | – | > 100 µM (inactive)
CC(C)[Si](OC/C(=C/COC(C)(C)C)[C@H]1CC=C(C(=O)c2ccccc2N2CN(C)C(=O)N(C)C2)C1)(C(C)C)C(C)C | 19.7 µM (inactive) | 9.53 µM (inactive) | 13.4 µM (inactive) | 4.29 µM (inactive) | 15.9 µM (inactive) | 9.73 µM (inactive) | 12.2 µM (inactive) | 11.9 µM (inactive) | 6.04 µM (inactive) | 0.366 µM (active) | 14.6 µM (inactive) | 12.9 µM (inactive) | 9.95 µM (inactive) | 2.14 µM (inactive) | 10.1 µM (inactive) | 10.1 µM (inactive) | 6.28 µM (inactive) | 10.8 µM (inactive) | –
